Laboratory results from patent US9809562B2, “NAT10 modulators for treating or preventing laminopathies, aging and cancer” (CAMBRIDGE ENTERPRISE LIMITED, priority 2014, dated 2017).
Counter-ions that a name gives are not always drawn.

Tests used:
HGPS cells = assay: Chromatin, nucleolar and SUN1 organization in HGPS cells (IF); type: cell-based, human; details: Remodelin 1 μM
Description: The following KAT and KDAC inhibitors were used in the nuclear shape rescue screen, incubating cells with the molecules for 16 hours: trichostatin A (1 μM), sodium butyrate (5 mM), tubacin (10 μM), SAHA (5 μM), curcumin (10 μM), garcinol (50 μM), anacardic acid (1 μM), MB-3 (5 μM), 4-(4-chlorophenyl)-2-(2-cyclopentylidenehydrazinyl)thiazole (Compound 2) (50 μM), 4-(4-chlorophenyl)-2-(2-cyclopentylidene-1-(prop-2-yn-1-yl)hydrazinyl)thiazole (Compound 3) (50 μM) and cyclopentylidene-[4-(4-cyanophenyl)thiazol-2-yl)hydrazine (Compound 1) (Remodelin) (10 to 50 μM). For HGPS cellular fitness assays, Remodelin was incubated at 1 μM for 1 to 10 days, renewing the medium every 3 days. For long-term senescence assay, cells were kept and passaged in medium containing 1 μM Remodelin or DMSO only for 12 population doublings. Senescence was assessed after 8 days of Remodelin treatment when cells were at Population Doubling 12, and then after several weeks of Remodelin treatment, when cells reached Population Doubling 24 using the Senescence β-Galactosidase Staining Kit #9860 from Cell Signaling. Nocodazole, colchicine and latrunculin A (Sigma-Aldrich) were used at 200 ng/ml, 1 μg/ml and 1 μM respectively. Aphidicolin (Sigma-Aldrich) was used at 5 μg/ml for 16 h. Farnesyltransferase inhibitor FTI-277 was purchased from Tocris Bioscience and used at 5 μM. […]

siLMNA cells = assay: Micrococcal nuclease digestion sensitivity assay and nuclear area (chromatin compaction); type: cell-based, human
Description: CellProfiler software was used to quantify nuclear circularity and nuclear area from DAPI staining pictures, using the “object size shape” measurement. The AreaShape measurement allowed the calculation of the Form Factor index ([…]) corresponding to circularity (a Form Factor of 1 reflecting a perfect circle), as well as the calculation of nuclear Area.
1×10^6 cells were trypsinized, harvested, and washed once with 1 ml of 1×RSB buffer (10 mM Tris, pH 7.6, 15 mM NaCl, and 1.5 mM MgCl2). After centrifugation ([…]), the cell pellet was resuspended in 1 ml of 1×RSB buffer with 1% Triton-X 100 and homogenized by five strokes with a loose-fitting glass pestle to release nuclei. Nuclei were collected by centrifugation (13,000×g) and washed twice with 1 ml of buffer A (15 mM Tris, pH 7.5, 15 mM NaCl, 60 mM KCl, 0.34 M sucrose, 0.5 mM spermidine, 0.15 mM spermine, 0.25 mM PMSF, and 0.1% β-mercaptoethanol). Nuclei were resuspended in Buffer A and aliquoted into 100 μl aliquots. […] DNA was purified using the Qiagen PCR purification kit and 1500 ng of DNA was analysed on a 1.5% agarose gel. Digestion profiles were analysed using ImageJ and values were adjusted relative to the global intensity of each lane to compensate for DNA loading variations.

[1] = system: main lysine acetyltranferase proteins (KAT); assay: In vitro specificity against lysine acetyltransferases; type: biochemical
[2] = system: tissues from Lmna^G609G/G609G mice; assay: γH2AX relative to total H2AX in mouse tissues (western blot); type: in vivo
Description: Tissues from wild type mice or Lmna^G609G/G609G mice treated with Compound 2 were harvested and proteins were extracted and loaded on a western blot which is shown in FIG. 26. Lmna^G609G/G609G mice indeed show progerin expression (readily detectable mainly in the Lung tissues), confirming their genotype. DNA damage was assessed by the DNA double strand break marker γH2AX that was quantified using a Licor Odyssey Imaging system.

HGPS fibroblasts = assay: Microarray gene expression, HGPS fibroblasts; type: cell-based, human
Description: Normal fibroblasts or HGPS fibroblasts were kept in culture for 12 population doublings with chronic treatment of 1 μM Compound 2 (top panels of FIG. 29) or transfected with siRNA against NAT10 for 3 days (bottom panels of FIG. 29). RNA was extracted and global gene expression was analysed by microarray. Volcano plots show a very high specificity of Compound 2 towards gene expression regulation of HGPS cells, with about 1000 genes affected more than 2 fold, whereas only 24 genes were affected in normal fibroblasts.

N#Cc1ccc(-c2csc(NN=C3CCCC3)n2)cc1 [Compound 1, 4-(4-Cyanophenyl)-2-(2-cyclopentylidenehydrazinyl)thiazole]
SUN1 accumulation at the nuclear envelope (HGPS cells): decreased SUN1 accumulation at the nuclear envelope | chromatin and nucleolar organization (H3K9me3 and NAT10 staining) (HGPS cells): improved chromatin and nucleolar organization

Clc1ccc(-c2csc(NN=C3CCCC3)n2)cc1 [Compound 2, 4-(4-Chlorophenyl)-2-(2-cyclopentylidenehydrazinyl)thiazole Hydrochloride Salt]
global chromatin compaction (MNase sensitivity) (siLMNA cells): decreased MNase sensitivity | nuclear area (siLMNA cells): reduced nuclear area | inhibition of KAT activity towards histone substrates [1]: does not inhibit the activity of the main lysine acetyltranferase proteins (KAT) | DNA damage (γH2AX relative to total H2AX) ([2]; heart and lung, treated vs untreated Lmna^G609G/G609G mice): clear decrease of DNA damage | DNA damage (γH2AX relative to total H2AX) ([2]; liver extracts): No effect | number of genes affected more than 2 fold (HGPS fibroblasts; HGPS fibroblasts, 1 μM, 12 population doublings): about 1000 genes | genes misregulated in HGPS that are rescued (HGPS fibroblasts; HGPS vs normal fibroblasts, Venn diagrams): about half of the genes that are misregulated in HGPS compared to normal fibroblasts are rescued
